From PubChem BioAssay (NCI) come the findings set out here.

Where “and” joins values, the source holds several entries; their conditions need not be identical. Equal values may be shown once.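 96-well plates; 48 h exposure; 5 concentrations. Endpoints by linear interpolation between flanking doses. Not reached: highest tested concentration assigned. GI50 marks 50% less growth. TGI is the concentration that stops growth completely.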

Among the test systems are M14 melanoma; TK-10 renal; A498 renal; CAKI-1 renal; COLO 205 colon; SR leukemia; NCI-H460 lung; OVCAR-8 ovarian; CCRF-CEM leukemia; SF-268 CNS.
What all share (assay): DTP human tumour cell line panel, 48 h

`N#C/C(=C\c1ccc(Br)cc1)n1nnc2ccc(F)cc21`: the GI50 in the experiment with M14 melanoma was 0.385 µM; in the experiment on TK-10 renal, 2.26 µM; with A498 renal, 1.7 µM; with CAKI-1 renal it was 0.293 µM; with COLO 205 colon, 1.54 µM; in the experiment on SR leukemia, 0.348 µM. Besides, the GI50 is 2.26 µM in the experiment on NCI-H460 lung, 1.84 µM in the experiment on OVCAR-8 ovarian, 0.395 µM in the experiment with CCRF-CEM leukemia and 1.84 µM with SF-268 CNS. The TGI in the experiment with M14 melanoma was 1.69 µM; in the experiment on TK-10 renal it was 5.61 µM; in the experiment on A498 renal it was 3.54 µM; with CAKI-1 renal it was 1.35 µM; with COLO 205 colon it was 4 µM; in the experiment on SR leukemia it was greater than 100 µM. In addition, the concentration for total growth inhibition (TGI) was 5.33 µM with NCI-H460 lung, 18.2 µM in the experiment on OVCAR-8 ovarian, greater than 100 µM with CCRF-CEM leukemia and 4.33 µM with SF-268 CNS.
With `COC(=O)c1c2cccccc-2c(Cc2c3cccccc-3c(C(=O)OC)c2O)c1O`, the total growth inhibition concentration (TGI) with M14 melanoma, in the experiment on TK-10 renal, with A498 renal, in the experiment on CAKI-1 renal, in the experiment with COLO 205 colon and in the experiment with SR leukemia was greater than 100 µM each time. In addition, the TGI with NCI-H460 lung, in the experiment on OVCAR-8 ovarian, in the experiment with CCRF-CEM leukemia and in the experiment on SF-268 CNS was greater than 100 µM throughout.
Regarding `O=C(OC[C@H]1O[C@H](OC(=O)c2cc(O)c(O)c(OC(=O)c3cc(O)c(O)c(O)c3)c2)[C@H](OC(=O)c2cc(O)c(O)c(OC(=O)c3cc(O)c(O)c(O)c3)c2)[C@@H](OC(=O)c2cc(O)c(O)c(OC(=O)c3cc(O)c(O)c(O)c3)c2)[C@@H]1OC(=O)c1cc(O)c(O)c(OC(=O)c2cc(O)c(O)c(O)c2)c1)c1cc(O)c(O)c(OC(=O)c2cc(O)c(O)c(O)c2)c1`, the GI50 is 5.01 µM in the experiment with M14 melanoma; 7.66 µM in the experiment on TK-10 renal; greater than 25 µM in the experiment on A498 renal; 1.39 µM in the experiment on CAKI-1 renal; 8.17 µM in the experiment with COLO 205 colon; 1.86 µM in the experiment on SR leukemia. Further, the GI50 in the experiment on NCI-H460 lung is 1.09 µM; in the experiment with OVCAR-8 ovarian it was 1.91 µM; with CCRF-CEM leukemia it was 3.23 µM; in the experiment with SF-268 CNS, 2.18 µM. Besides, the TGI with M14 melanoma, in the experiment with TK-10 renal, with A498 renal, in the experiment with CAKI-1 renal, with COLO 205 colon and in the experiment on SR leukemia was greater than 25 µM in each case. Further, the total growth inhibition concentration (TGI) with NCI-H460 lung, in the experiment on OVCAR-8 ovarian, with CCRF-CEM leukemia and with SF-268 CNS was greater than 25 µM throughout.
Take `O=C1c2ccccc2S(=O)(=O)c2cc(-c3nn[nH]n3)ccc21`: the TGI in the experiment with M14 melanoma, in the experiment with TK-10 renal, in the experiment on A498 renal, in the experiment with CAKI-1 renal, in the experiment on COLO 205 colon and in the experiment on SR leukemia was greater than 100 µM throughout. In addition, the TGI in the experiment on NCI-H460 lung, in the experiment with OVCAR-8 ovarian, in the experiment on CCRF-CEM leukemia and with SF-268 CNS was greater than 100 µM throughout.
`NCCCNCCCCNC(=O)C(O)NC(=O)CCCCCCN=C(N)N` (stereo not given): the GI50 in the experiment on M14 melanoma is 2450 µM; with TK-10 renal it was greater than 4030 µM; with A498 renal, 1500 µM; in the experiment with CAKI-1 renal, 540 µM and > 3340 µM; with COLO 205 colon, 1580 µM; in the experiment with SR leukemia it was 530 µM. The GI50 with NCI-H460 lung was greater than 2770 µM; with OVCAR-8 ovarian, 2440 µM; in the experiment with CCRF-CEM leukemia, 1320 µM; in the experiment with SF-268 CNS it was 3070 µM. Further, the TGI in the experiment with M14 melanoma was greater than 3810 µM; in the experiment on TK-10 renal it was greater than 5000 µM; in the experiment with A498 renal, greater than 5000 µM; in the experiment on CAKI-1 renal it was 710 µM and > 5000 µM; with COLO 205 colon, 750 µM and > 5000 µM; in the experiment with SR leukemia, 750 µM and > 4240 µM. The TGI in the experiment on NCI-H460 lung is 750 µM and > 5000 µM; in the experiment on OVCAR-8 ovarian, 750 µM and > 5000 µM; in the experiment on CCRF-CEM leukemia, 750 µM and > 3570 µM; in the experiment on SF-268 CNS, greater than 5000 µM.
Regarding `Cc1cc(C)cc(NC(N)=S)c1`, the TGI was greater than 100 µM in the experiment on M14 melanoma; greater than 100 µM in the experiment with TK-10 renal; greater than 100 µM in the experiment on A498 renal; greater than 100 µM in the experiment with CAKI-1 renal; 59.1 µM in the experiment on COLO 205 colon; greater than 100 µM in the experiment on SR leukemia. Moreover, the TGI was greater than 100 µM with NCI-H460 lung, greater than 100 µM with OVCAR-8 ovarian, 48 µM with CCRF-CEM leukemia and greater than 100 µM in the experiment with SF-268 CNS.
Take `O=C1C(=O)c2cccnc2-c2ncccc21`: the 50% growth inhibitory concentration (GI50) is 0.159 µM with M14 melanoma; 1.24 µM in the experiment with TK-10 renal; 0.199 µM with A498 renal; 0.605 µM in the experiment with CAKI-1 renal; 1.03 µM with COLO 205 colon; 0.0875 µM with SR leukemia. Besides, the concentration for 50% growth inhibition (GI50) in the experiment on NCI-H460 lung was 0.0678 µM; in the experiment on OVCAR-8 ovarian, 0.166 µM; with CCRF-CEM leukemia, 0.0797 µM; in the experiment on SF-268 CNS, 0.224 µM. Besides, the TGI is 0.441 µM in the experiment on M14 melanoma; 2.6 µM in the experiment on TK-10 renal; 2.21 µM with A498 renal; 1.92 µM in the experiment with CAKI-1 renal; 2.51 µM with COLO 205 colon; 1.08 µM in the experiment on SR leukemia. The TGI in the experiment with NCI-H460 lung turned out to be 0.774 µM; in the experiment with OVCAR-8 ovarian it was 0.727 µM; with CCRF-CEM leukemia, 0.618 µM; with SF-268 CNS, 1.01 µM.
Consider `O=c1c(O)c(-c2cc(O)c(O)c(O)c2)oc2cc(O)cc(O)c12`, for which the total growth inhibition concentration (TGI) is greater than 100 µM with M14 melanoma; greater than 100 µM with TK-10 renal; greater than 100 µM in the experiment with A498 renal; 54 µM with CAKI-1 renal; greater than 100 µM in the experiment on COLO 205 colon; greater than 100 µM with SR leukemia. Further, the concentration for total growth inhibition (TGI) in the experiment on NCI-H460 lung is 39.1 µM; in the experiment with OVCAR-8 ovarian it was 33.2 µM; in the experiment on CCRF-CEM leukemia, greater than 100 µM; in the experiment on SF-268 CNS, greater than 100 µM.
`Cc1cccc(NC(=O)c2cccc([N+](=O)[O-])c2O)c1C`: the total growth inhibition concentration (TGI) is greater than 100 µM in the experiment with M14 melanoma; greater than 100 µM in the experiment on TK-10 renal; greater than 100 µM with A498 renal; greater than 100 µM in the experiment on CAKI-1 renal; 32.9 µM in the experiment with COLO 205 colon; greater than 100 µM in the experiment on SR leukemia. The total growth inhibition concentration (TGI) in the experiment with NCI-H460 lung is greater than 69.6 µM; in the experiment with OVCAR-8 ovarian it was greater than 100 µM; in the experiment on CCRF-CEM leukemia, greater than 31.6 µM; with SF-268 CNS, greater than 100 µM.

Usually GI50 stands for the concentration that inhibits growth by half. By TGI is commonly meant the concentration giving total growth inhibition. A high value points to less potent growth arrest.
